Here are results for five cell lines from the supplement of paper PMC10307832.

Holding throughout (assay): relative viability (nuclei count vs DMSO), 5 days (fraction); higher = more cells survive
Compound in the assay “MK-2206 + AZD7762”: NC1(c2ccc(-c3nc4ccn5c(=O)[nH]nc5c4cc3-c3ccccc3)cc2)CCC1 [MK-2206] + NC(=O)Nc1cc(-c2cccc(F)c2)sc1C(=O)N[C@H]1CCCNC1 [AZD7762] (partner 0.2 µM)
The procedure, abridged:
(§1)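 Cells from lung cancer lines were seeded into 1536-well plates and, one day later, dosed by pin tool. Treatments were either a single drug or a fixed dose of an anchor drug with five library-drug doses (not always all listed) in √10 steps. After 5 days, nuclei were stained in a one-step fixation (final 0.05% Triton X-100, 1% formaldehyde, 1 ug/ml Hoechst) and counted on 4× images, and relative viability is the treated-to-vehicle nuclei ratio, as the median of duplicate plates.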

Compound in the assay “MK-2206 + Foretinib”: NC1(c2ccc(-c3nc4ccn5c(=O)[nH]nc5c4cc3-c3ccccc3)cc2)CCC1 [MK-2206] + COc1cc2c(Oc3ccc(NC(=O)C4(C(=O)Nc5ccc(F)cc5)CC4)cc3F)ccnc2cc1OCCCN1CCOCC1 [Foretinib] (partner 0.25 µM)
The procedure, abridged:
as §1

Compound in the assay “MK-2206 + Decitabine”: NC1(c2ccc(-c3nc4ccn5c(=O)[nH]nc5c4cc3-c3ccccc3)cc2)CCC1 [MK-2206] + Nc1ncn([C@H]2C[C@H](O)[C@@H](CO)O2)c(=O)n1 [Decitabine] (partner 2 µM)
An outline of the steps: as §1

Compound in the assay “Pictilisib + Crizotinib”: CS(=O)(=O)N1CCN(Cc2cc3nc(-c4cccc5[nH]ncc45)nc(N4CCOCC4)c3s2)CC1 [Pictilisib] + C[C@@H](Oc1cc(-c2cnn(C3CCNCC3)c2)cnc1N)c1c(Cl)ccc(F)c1Cl [Crizotinib] (partner 1 µM)
An outline of the steps:
as §1

Compound in the assay “MK-2206 + OSI-027”: NC1(c2ccc(-c3nc4ccn5c(=O)[nH]nc5c4cc3-c3ccccc3)cc2)CCC1 [MK-2206] + COc1cccc2cc(-c3nc([C@H]4CC[C@H](C(=O)O)CC4)n4ncnc(N)c34)[nH]c12 [OSI-027] (partner 0.5 µM)
An outline of the steps:
as §1

On to EMC-BAC-2, for which the relative viability in the assay with MK-2206 + AZD7762 (first compound 0.01 µM) was found to be 1.06; with MK-2206 + AZD7762 (first compound 0.03162 µM), 1.17; in the assay with MK-2206 + AZD7762 (first compound 0.3162 µM), 1.02; with MK-2206 + AZD7762 (first compound 1 µM), 0.852; with MK-2206 + Foretinib (first compound 0.01 µM), 1.06; in the assay with MK-2206 + Foretinib (first compound 0.03162 µM), 1.01. Besides, the relative viability with MK-2206 + Foretinib (first compound 0.3162 µM) is 0.905; with MK-2206 + Foretinib (first compound 1 µM) it was 0.885; with MK-2206 + Decitabine (first compound 0.01 µM) it was 0.98; with MK-2206 + Decitabine (first compound 0.03162 µM), 0.956; with MK-2206 + Decitabine (first compound 0.3162 µM), 0.939; with MK-2206 + Decitabine (first compound 1 µM) it was 0.829. In addition, the relative viability in the assay with Pictilisib + Crizotinib (first compound 0.02 µM) is 0.779; in the assay with Pictilisib + Crizotinib (first compound 0.06325 µM) it was 0.811; in the assay with Pictilisib + Crizotinib (first compound 0.6325 µM), 0.691; in the assay with Pictilisib + Crizotinib (first compound 2 µM) it was 0.601; in the assay with MK-2206 + OSI-027 (first compound 0.01 µM), 0.415; with MK-2206 + OSI-027 (first compound 0.03162 µM) it was 0.364. Besides, the relative viability with MK-2206 + OSI-027 (first compound 0.3162 µM) was found to be 0.287; in the assay with MK-2206 + OSI-027 (first compound 1 µM), 0.313.
In the case of NCI-H1355, the relative viability with MK-2206 + AZD7762 (first compound 0.01 µM) worked out at 0.664; with MK-2206 + AZD7762 (first compound 0.03162 µM), 0.557; with MK-2206 + AZD7762 (first compound 0.3162 µM), 0.681; with MK-2206 + AZD7762 (first compound 1 µM) it was 0.6; in the assay with MK-2206 + Foretinib (first compound 0.01 µM) it was 0.94; in the assay with MK-2206 + Foretinib (first compound 0.03162 µM) it was 1.02. Further, the relative viability came to 0.952 with MK-2206 + Foretinib (first compound 0.3162 µM); 0.952 with MK-2206 + Foretinib (first compound 1 µM); 0.347 with MK-2206 + Decitabine (first compound 0.01 µM); 0.362 in the assay with MK-2206 + Decitabine (first compound 0.03162 µM); 0.379 with MK-2206 + Decitabine (first compound 0.3162 µM); 0.345 with MK-2206 + Decitabine (first compound 1 µM). Also, the relative viability was 1.1 with Pictilisib + Crizotinib (first compound 0.02 µM); 0.983 with Pictilisib + Crizotinib (first compound 0.06325 µM); 0.876 with Pictilisib + Crizotinib (first compound 0.6325 µM); 0.606 with Pictilisib + Crizotinib (first compound 2 µM); 0.394 in the assay with MK-2206 + OSI-027 (first compound 0.01 µM); 0.433 with MK-2206 + OSI-027 (first compound 0.03162 µM). Also, the relative viability with MK-2206 + OSI-027 (first compound 0.3162 µM) was found to be 0.289; in the assay with MK-2206 + OSI-027 (first compound 1 µM) it was 0.235.
On to NCI-H1944, for which the relative viability with MK-2206 + AZD7762 (first compound 0.01 µM) was found to be 0.539; with MK-2206 + AZD7762 (first compound 0.03162 µM), 0.254; in the assay with MK-2206 + AZD7762 (first compound 0.3162 µM), 0.472; with MK-2206 + AZD7762 (first compound 1 µM), 0.5; in the assay with MK-2206 + Foretinib (first compound 0.01 µM), 0.889; in the assay with MK-2206 + Foretinib (first compound 0.03162 µM), 1. In addition, the relative viability in the assay with MK-2206 + Foretinib (first compound 0.3162 µM) was determined as 0.887; in the assay with MK-2206 + Foretinib (first compound 1 µM), 0.829; with MK-2206 + Decitabine (first compound 0.01 µM), 0.414; in the assay with MK-2206 + Decitabine (first compound 0.03162 µM) it was 0.449; with MK-2206 + Decitabine (first compound 0.3162 µM), 0.508; in the assay with MK-2206 + Decitabine (first compound 1 µM), 0.446. In addition, the relative viability in the assay with Pictilisib + Crizotinib (first compound 0.02 µM) stood at 1.11; with Pictilisib + Crizotinib (first compound 0.06325 µM), 0.962; in the assay with Pictilisib + Crizotinib (first compound 0.6325 µM) it was 0.933; with Pictilisib + Crizotinib (first compound 2 µM), 0.603; in the assay with MK-2206 + OSI-027 (first compound 0.01 µM) it was 0.478; in the assay with MK-2206 + OSI-027 (first compound 0.03162 µM), 0.447. For the same cell line, the relative viability in the assay with MK-2206 + OSI-027 (first compound 0.3162 µM) amounted to 0.361; in the assay with MK-2206 + OSI-027 (first compound 1 µM), 0.326.
For ABC-1, the relative viability with MK-2206 + AZD7762 (first compound 0.01 µM) came out at 0.795; in the assay with MK-2206 + AZD7762 (first compound 0.03162 µM), 0.787; with MK-2206 + AZD7762 (first compound 0.3162 µM), 0.85; with MK-2206 + AZD7762 (first compound 1 µM) it was 0.814; with MK-2206 + Foretinib (first compound 0.01 µM) it was 1.16; in the assay with MK-2206 + Foretinib (first compound 0.03162 µM) it was 0.965. For the same cell line, the relative viability with MK-2206 + Foretinib (first compound 0.3162 µM) worked out at 1.17; in the assay with MK-2206 + Foretinib (first compound 1 µM), 1.07; with MK-2206 + Decitabine (first compound 0.01 µM) it was 1.19; with MK-2206 + Decitabine (first compound 0.03162 µM) it was 1.25; in the assay with MK-2206 + Decitabine (first compound 0.3162 µM) it was 1.06; in the assay with MK-2206 + Decitabine (first compound 1 µM), 1.02. For the same cell line, the relative viability with Pictilisib + Crizotinib (first compound 0.02 µM) amounted to 0.96; in the assay with Pictilisib + Crizotinib (first compound 0.06325 µM), 1.2; with Pictilisib + Crizotinib (first compound 0.6325 µM), 1.2; with Pictilisib + Crizotinib (first compound 2 µM), 0.507; in the assay with MK-2206 + OSI-027 (first compound 0.01 µM), 0.552; in the assay with MK-2206 + OSI-027 (first compound 0.03162 µM), 0.494. The relative viability was 0.381 with MK-2206 + OSI-027 (first compound 0.3162 µM) and 0.379 in the assay with MK-2206 + OSI-027 (first compound 1 µM).
As for HOP-62, the relative viability with MK-2206 + AZD7762 (first compound 0.01 µM) came to 0.734; with MK-2206 + AZD7762 (first compound 0.03162 µM) it was 0.336; in the assay with MK-2206 + AZD7762 (first compound 0.3162 µM), 0.437; in the assay with MK-2206 + AZD7762 (first compound 1 µM), 0.71; in the assay with MK-2206 + Foretinib (first compound 0.01 µM) it was 1.09; with MK-2206 + Foretinib (first compound 0.03162 µM) it was 1.16. The relative viability was 1.15 in the assay with MK-2206 + Foretinib (first compound 0.3162 µM); 1.06 in the assay with MK-2206 + Foretinib (first compound 1 µM); 0.202 in the assay with MK-2206 + Decitabine (first compound 0.01 µM); 0.227 with MK-2206 + Decitabine (first compound 0.03162 µM); 0.237 with MK-2206 + Decitabine (first compound 0.3162 µM); 0.255 in the assay with MK-2206 + Decitabine (first compound 1 µM). Further, the relative viability was 1.07 with Pictilisib + Crizotinib (first compound 0.02 µM); 0.972 with Pictilisib + Crizotinib (first compound 0.06325 µM); 1.01 with Pictilisib + Crizotinib (first compound 0.6325 µM); 0.671 with Pictilisib + Crizotinib (first compound 2 µM); 0.808 with MK-2206 + OSI-027 (first compound 0.01 µM); 0.808 in the assay with MK-2206 + OSI-027 (first compound 0.03162 µM). The relative viability with MK-2206 + OSI-027 (first compound 0.3162 µM) came to 0.74; with MK-2206 + OSI-027 (first compound 1 µM) it was 0.828.
